Data from patent publication US20240408099A1, “COMBINATION […] OF KRAS G12D INHIBITORS WITH Pan ErbB FAMILY INHIBITORS” (MIRATI THERAPEUTICS, INC., priority 2021, published 2024).

Assays:
[1] = test system: SNU1197; assay: Composite Synergy Score, Cell-Titer Glo 72 hours, dose matrix with MRTX1133; assay type: cell-based; details: combined with MRTX1133
Experimental: (§1) Assays for determining the synergy score for the pairwise combinations for each cell line were performed in triplicate. Three 96-well plates plus an additional 4 wells of a separate 96-well control plate for determining baseline luminescence were seeded with 2000 cells/well of a particular cell line in a total volume of 90 μl of a suitable growth medium for that cell line, e.g., RPMI 1640 medium supplemented with 10% FBS and any cell line specific reagents need for growth. The plates were incubated overnight at 37° C. in a 5% CO2 atmosphere.
(§2) To each of the designated baseline wells, 30 μl of Cell-Titer Glo reagent (CTG; Promega Corporation) was added to each well and the plates were incubated for 20 min with shaking at room temperature. Baseline luminescence was quantitated using a BMG ClarioStar multimode plate reader according to the manufacturer's instructions.
(§3) A series of working stock 1000× drug dilutions in 100% DMSO was prepared that includes an 8 point single agent dilution of MRTX 1133 and a 5-point single agent dilution of the pan ErbB family inhibitor. The dilutions used for MRTX1133 and the pan ErbB family inhibitor varied for each individual compound but were in the range of 3- to 6-fold/serial dilution.
(§4) A 10× intermediate dosing plate was prepared in serum free RPMI medium that contains arrayed single agent dilutions MRTX1133 or the pan ErbB family inhibitor. In addition, a matrix of 40 dilution combinations of MRTX1133 and the pan ErbB family inhibitor was prepared as test samples.
(§5) To each corresponding well of the three 96-well plates seeded with the appropriate cell line above, 10 μl of each 10× single agent and the 40 combinations of the dose matrix was added and the plates were incubated for 72 hours at 37 C in 5% CO2 atmosphere. A 30 μl aliquot of Cell-Titer Glo reagent (CTG) was added to each test well, the plates were incubated for 20 min with shaking at room temperature, and luminescence was quantitated using a BMG ClarioStar multimode plate reader according to the manufacturer's instructions.
(§6) The output of the data from each mathematical model is the assignment of a relative synergy score. The data reported in Table 1 are the aggregate sum of the Loewe additivity, Bliss independence, Highest Single Agent and ZIP scores (“Composite Synergy Score”).
(§7) The output of the data from each mathematical model is the assignment of a relative synergy score.

[2] = test system: ASPC1; assay: as above; assay type: cell-based; details: combined with MRTX1133
Experimental: as §1, §2, §3, §4, §5, §6, §7

[3] = test system: SNU410; assay: as above; assay type: cell-based; details: combined with MRTX1133
Experimental: as §1, §2, §3, §4, §5, §6, §7

[4] = test system: Panc1; assay: as above; assay type: cell-based; details: combined with MRTX1133
Experimental: as §1, §2, §3, §4, §5, §6, §7

[5] = test system: SNU61; assay: as above; assay type: cell-based; details: combined with MRTX1133
Experimental: as §1, §2, §3, §4, §5, §6, §7

[6] = test system: HCC1588; assay: as above; assay type: cell-based; details: combined with MRTX1133
Experimental: as §1, §2, §3, §4, §5, §6, §7

[7] = test system: AGS; assay: as above; assay type: cell-based; details: combined with MRTX1133
Experimental: as §1, §2, §3, §4, §5, §6, §7

[8] = test system: Panc0813; assay: as above; assay type: cell-based; details: combined with MRTX1133
Experimental: as §1, §2, §3, §4, §5, §6, §7

[9] = test system: HPAC; assay: as above; assay type: cell-based; details: combined with MRTX1133
Experimental: as §1, §2, §3, §4, §5, §6, §7

[10] = test system: SW1990; assay: as above; assay type: cell-based; details: combined with MRTX1133
Experimental: as §1, §2, §3, §4, §5, §6, §7

[11] = test system: Hec1B; assay: as above; assay type: cell-based; details: combined with MRTX1133
Experimental: as §1, §2, §3, §4, §5, §6, §7

[12] = test system: Panc1005; assay: as above; assay type: cell-based; details: combined with MRTX1133
Experimental: as §1, §2, §3, §4, §5, §6, §7

[13] = test system: SNU407; assay: as above; assay type: cell-based; details: combined with MRTX1133
Experimental: as §1, §2, §3, §4, §5, §6, §7

[14] = test system: Panc0203; assay: as above; assay type: cell-based; details: combined with MRTX1133
Experimental: as §1, §2, §3, §4, §5, §6, §7

[15] = test system: LS513; assay: as above; assay type: cell-based; details: combined with MRTX1133
Experimental: as §1, §2, §3, §4, §5, §6, §7

[16] = test system: HPAFII; assay: as above; assay type: cell-based; details: combined with MRTX1133
Experimental: as §1, §2, §3, §4, §5, §6, §7

[17] = test system: GP2D; assay: as above; assay type: cell-based; details: combined with MRTX1133
Experimental: as §1, §2, §3, §4, §5, §6, §7

[18] = test system: SNUC2B; assay: as above; assay type: cell-based; details: combined with MRTX1133
Experimental: as §1, §2, §3, §4, §5, §6, §7

[19] = test system: Panc0504; assay: as above; assay type: cell-based; details: combined with MRTX1133
Experimental: as §1, §2, §3, §4, §5, §6, §7

[20] = test system: Panc0403; assay: as above; assay type: cell-based; details: combined with MRTX1133
Experimental: as §1, §2, §3, §4, §5, §6, §7

[21] = test system: SU8684; assay: as above; assay type: cell-based; details: combined with MRTX1133
Experimental: as §1, §2, §3, §4, §5, §6, §7

[22] = test system: LS180; assay: as above; assay type: cell-based; details: combined with MRTX1133
Experimental: as §1, §2, §3, §4, §5, §6, §7

[23] = test system: SUIT2; assay: as above; assay type: cell-based; details: combined with MRTX1133
Experimental: as §1, §2, §3, §4, §5, §6, §7

[24] = test system: SNU1033; assay: as above; assay type: cell-based; details: combined with MRTX1133
Experimental: as §1, §2, §3, §4, §5, §6, §7

[25] = test system: HPAC cells; assay: HPAC TGI 73 pancreatic cancer xenograft, tumor volumes; assay type: in vivo, nude/nude mice; details: for Average Tumor Volumes: 30 mg/kg IP BID daily
Experimental: Immunocompromised nude/nude mice are inoculated in the right hind flank with cells harboring a KRas G12D mutation. When tumor volumes reach between 200-400 mm^3 in size, the mice are divided into four to five groups of 5 mice each. The first group is administered vehicle only. […] The fourth or last groups are administered the single agent dose of the KRas G12D inhibitor using the twice daily schedule and/or the 2 sequential days followed by 5 days off schedule in combination with the single agent dose of one of the EGFR inhibitors. The treatment period varies from cell line to cell line but typically is between 15-40 days. Tumor volumes are measured using a caliper every two-three days and tumor volumes are calculated by the formula: […].
Experimental Procedures. 20 nude/nude mice were inoculated with HPAC cells in the right hind flank. When the tumors reached ˜200 mm^3 four treatment groups were established with five mice per group.

CN(C)C/C=C/C(=O)Nc1cc2c(Nc3ccc(F)c(Cl)c3)ncnc2cc1OC1CCOC1 (centres unmarked) [Afatinib, (E)-N-(4-((3-chloro-4-fluorophenyl)amino)-7-((tetrahydrofuran-3-yl)oxy)quinazolin-6-yl)-4-(dimethylamino)but-2-enamide, reference compound] was tested, and the “Composite Synergy Score” value [1] was 63, the “Composite Synergy Score” value [2] was 28 and the “Composite Synergy Score” value [3] was −13. For the same molecule, the “Composite Synergy Score” value [4] was −6, the “Composite Synergy Score” value [5] was 44 and the “Composite Synergy Score” value [6] was 10. For the same molecule, the “Composite Synergy Score” value [7] was 36, the “Composite Synergy Score” value [8] was 20 and the “Composite Synergy Score” value [9] was 33. The “Composite Synergy Score” value [10] was 57, the “Composite Synergy Score” value [11] was −5 and the “Composite Synergy Score” value [12] was 37. The “Composite Synergy Score” value [13] was 23, the “Composite Synergy Score” value [14] was 54 and the “Composite Synergy Score” value [15] was 69. The “Composite Synergy Score” value [16] was 23, the “Composite Synergy Score” value [17] was 26 and the “Composite Synergy Score” value [18] was 25. The “Composite Synergy Score” value [19] was 24, the “Composite Synergy Score” value [20] was 40 and the “Composite Synergy Score” value [21] was 42. The “Composite Synergy Score” value [22] was 76, the “Composite Synergy Score” value [23] was 45 and the “Composite Synergy Score” value [24] was 30.

For C#Cc1c(F)ccc2cc(O)cc(-c3ncc4c(N5C[C@H]6CC[C@@H](C5)N6)nc(OC[C@@]56CCCN5C[C@H](F)C6)nc4c3F)c12 [MRTX1133, 4-(4-((1R,5S)-3,8-diazabicyclo[3.2.1]octan-3-yl)-8-fluoro-2-(((2R,7aS)-2-fluorohexahydro-1H-pyrrolizin-7a-yl)methoxy)pyrido[4,3-d]pyrimidin-7-yl)-5-ethynyl-6-fluoronaphthalen-2-ol], the “Average Tumor Volumes” value ([25]; Study Day 0) was 196.76 mm^3, the “Average Tumor Volumes” value ([25]; Study Day 3) was 149.646 mm^3 and the “Average Tumor Volumes” value ([25]; Study Day 7) was 107.504 mm^3. The “Average Tumor Volumes” value ([25]; Study Day 10) was 99.742 mm^3, the “Average Tumor Volumes” value ([25]; Study Day 14) was 91.818 mm^3 and the “Average Tumor Volumes” value ([25]; Study Day 17) was 93.348 mm^3. For the same molecule, the “Average Tumor Volumes” value ([25]; Study Day 21) was 74.006 mm^3 and the tumor regression ([25]; 30 mg/kg daily, single agent, Day 21) was −62%.
